How the values were obtained:
[1] = biological target: T1, Adenosine A2b receptor (Homo sapiens, UniProt P29275); assay: Adenosine receptor TR-FRET binding assay, A2b; conditions: Table 9, further testing; displacement of 30 nM CA200645, CHO cell membranes
T1 construct: expressed in transfected cells; host or cells: CHO cell membranes
T1 sequence (P29275 1-332): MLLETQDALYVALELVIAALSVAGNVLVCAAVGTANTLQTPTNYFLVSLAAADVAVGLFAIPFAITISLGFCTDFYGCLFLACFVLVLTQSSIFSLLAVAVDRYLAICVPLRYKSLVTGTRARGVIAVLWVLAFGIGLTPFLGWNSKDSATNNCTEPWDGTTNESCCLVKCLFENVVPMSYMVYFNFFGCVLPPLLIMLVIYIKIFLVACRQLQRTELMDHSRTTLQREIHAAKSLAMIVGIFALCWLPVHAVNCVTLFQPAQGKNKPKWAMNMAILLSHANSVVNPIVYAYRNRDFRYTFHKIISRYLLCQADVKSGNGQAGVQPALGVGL
Method: (§1) All FRET binding experiments were conducted at room temperature in white 384-well plates, in assay binding buffer containing 1× LabMed (Cisbio, France), 100 μg/mL saponin, 1% DMSO and 0.02% pluronic acid. Binding of the fluorescently labelled Adenosine receptor antagonist XAC (CA200645, FRET acceptor) to terbium-labelled A1, A2a, A2b and A3 adenosine receptors (FRET donors) was detected by time-resolved FRET due to the close proximity of the donor and acceptor in a binding event. To investigate the ability of unlabelled test compounds to bind to Adenosine A1, A2a, A2b and A3 receptors, dose response curves were constructed that determined the ability of a range of concentrations to inhibit the binding of 30 nM CA200645 to the A2b receptor and 100 nM CA200645 to the A1, A2a, and A3 receptor.
(§2) Serial dilution (1:3 dilutions) of test compounds in neat DMSO and transfer of a 400 nL sample of test compound into the assay plate was carried out using the Mosquito (TTP Labtech, UK). The compound samples were incubated for 2 hours at room temperature with a fixed concentration of CA200645 defined for each receptor (see above) and CHO cell membranes containing the human Adenosine A1 (0.5 μg/well), A2a (0.3 μg/well), A2b (1 μg/well) or A3 (1 μg/well) receptor in 40 μL of assay buffer. Total and non-specific binding of CA200645 was determined in the absence and presence of 10 μM XAC, respectively.
(§3) Following 2 hours incubation, the level of CA200645 binding was detected on a Pherastar FSX (BMG Labtech, Germany) using standard TR-FRET settings. The terbium donor was excited with three laser flashes at a wavelength of 337 nm, and donor and acceptor emission was detected at 620 nm and 665 nm wavelengths, respectively. FRET ratios were obtained by multiplying the acceptor/donor ratio value by 10,000. Specific binding was determined by subtracting the non-specific binding FRET ratio from the total binding FRET ratio. Compound IC50 curves were analysed using GraphPad Prism 7.0 (GraphPad, USA) and Ki affinity values were determined from the obtained […] values using the method of Cheng and Prusoff.

[2] = biological target: T2, Adenosine A2a receptor (Homo sapiens, UniProt P29274); assay: Adenosine receptor TR-FRET binding assay, A2a; conditions: displacement of 100 nM CA200645, CHO cell membranes
T2 construct: expressed in transfected cells; host or cells: CHO cell membranes
Method: as §1, §2, §3

[3] = biological target: T3, Adenosine A3 receptor (Homo sapiens, UniProt P0DMS8); assay: Adenosine receptor TR-FRET binding assay, A3; conditions: Table 9, further testing; displacement of 100 nM CA200645, CHO cell membranes; read-out: A3 Ki
T3 construct: expressed in transfected cells; host or cells: CHO cell membranes
T3 sequence (P0DMS8 1-318): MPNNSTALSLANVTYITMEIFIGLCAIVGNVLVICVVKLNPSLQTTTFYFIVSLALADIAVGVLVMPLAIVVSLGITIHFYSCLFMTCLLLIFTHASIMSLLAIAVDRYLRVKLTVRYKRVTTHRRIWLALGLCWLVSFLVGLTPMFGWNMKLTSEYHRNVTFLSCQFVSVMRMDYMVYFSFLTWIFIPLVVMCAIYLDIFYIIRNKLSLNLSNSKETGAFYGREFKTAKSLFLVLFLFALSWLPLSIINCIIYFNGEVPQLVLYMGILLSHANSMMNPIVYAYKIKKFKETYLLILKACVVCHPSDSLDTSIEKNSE
Method: as §1, §2, §3

[4] = biological target: T4, Adenosine A1 receptor (Homo sapiens, UniProt P30542); assay: Adenosine receptor TR-FRET binding assay, A1; conditions: Table 9, further testing; displacement of 100 nM CA200645, CHO cell membranes
T4 construct: expressed in transfected cells; host or cells: CHO cell membranes
T4 sequence (P30542 1-326): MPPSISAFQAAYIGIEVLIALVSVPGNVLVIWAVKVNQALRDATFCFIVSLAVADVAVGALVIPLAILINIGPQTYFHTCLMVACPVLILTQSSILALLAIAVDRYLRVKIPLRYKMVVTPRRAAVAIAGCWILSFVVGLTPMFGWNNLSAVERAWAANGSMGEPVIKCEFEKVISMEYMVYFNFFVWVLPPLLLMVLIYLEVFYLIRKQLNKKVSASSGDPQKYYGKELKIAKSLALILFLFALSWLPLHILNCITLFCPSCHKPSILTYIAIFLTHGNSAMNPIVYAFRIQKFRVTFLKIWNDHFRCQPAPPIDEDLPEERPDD
Method: as §1, §2, §3

T2 sequence (P29274 whole entry): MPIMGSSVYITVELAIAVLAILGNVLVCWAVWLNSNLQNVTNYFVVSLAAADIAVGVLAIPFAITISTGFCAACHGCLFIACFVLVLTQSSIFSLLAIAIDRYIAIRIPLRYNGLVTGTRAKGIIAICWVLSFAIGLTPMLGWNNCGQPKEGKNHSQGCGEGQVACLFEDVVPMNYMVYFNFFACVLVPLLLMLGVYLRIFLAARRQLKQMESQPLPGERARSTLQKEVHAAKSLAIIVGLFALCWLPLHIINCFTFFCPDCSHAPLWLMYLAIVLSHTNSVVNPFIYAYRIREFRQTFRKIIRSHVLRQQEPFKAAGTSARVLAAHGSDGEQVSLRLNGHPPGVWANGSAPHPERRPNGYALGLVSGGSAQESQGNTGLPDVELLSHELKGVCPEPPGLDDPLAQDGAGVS

Structure (SMILES) | Ki [1] | Ki ([2]; Table 8, Cheng and Prusoff) | Ki ([2]; Table 9, further testing) | Ki [3] | Ki [4]
CCOc1cccnc1CNC(=O)c1cnc(-c2cccc(F)c2)nc1N [Example 5.8, 4-Amino-N-[(3-ethoxy-2-pyridyl)methyl]-2-(3-fluorophenyl)pyrimidine-5-carboxamide] | 679 nM | 21 nM | 21 nM |  | 
Nc1nc(-c2cccc(F)c2)ncc1C(=O)NCc1ccccn1 [Example 5.9, 4-Amino-2-(3-fluorophenyl)-N-(2-pyridylmethyl)pyrimidine-5-carboxamide] | 195 nM | 76 nM | 76 nM |  | 
Cc1ccccc1CNC(=O)c1cnc(-c2cccc(F)c2)nc1N [Example 5.10, 4-Amino-2-(3-fluorophenyl)-N-(o-tolylmethyl)pyrimidine-5-carboxamide] | 10000 nM | 150 nM | 150 nM |  | 
Nc1nc(-c2ccco2)ncc1C(=O)NCc1ccc(F)cc1 [Example 5.14, 4-Amino-N-[(4-fluorophenyl)methyl]-2-(2-furyl)pyrimidine-5-carboxamide] | 6630 nM | 33 nM | 33 nM | 1820 nM | 
Nc1nc(-c2ccco2)ncc1C(=O)NCc1cc(F)cc(F)c1 [Example 5.17, 4-Amino-N-[(3,5-difluorophenyl)methyl]-2-(2-furyl)pyrimidine-5-carboxamide] |  | 24 nM | 24 nM | 3050 nM | 1890 nM
Nc1nc(-c2ccco2)ncc1C(=O)NCc1ccc(C(F)(F)F)cc1 [Example 5.28, 4-amino-2-(2-furyl)-N-[[4-(trifluoromethyl)phenyl]methyl]pyrimidine-5-carboxamide] |  | 298 nM | 298 nM | 5780 nM | 5660 nM
COc1cccc(OC)c1CNC(=O)c1cnc(-c2ccco2)nc1N [Example 5.31, 4-Amino-N-[(2,6-dimethoxyphenyl)methyl]-2-(2-furyl)pyrimidine-5-carboxamide] | 4220 nM |  | 1.2 nM |  | 1530 nM
CC(C)n1ccnc1CNC(=O)c1cnc(-c2ccco2)nc1N [Example 5.33, 4-Amino-2-(2-furyl)-N-[(1-isopropylimidazol-2-yl)methyl]pyrimidine-5-carboxamide] | 6680 nM |  | 9.4 nM |  | 
Nc1nc(-c2ccco2)ncc1C(=O)NCc1cc2ccccc2cn1 [Example 5.36, 4-Amino-2-(2-furyl)-N-(3-isoquinolylmethyl) pyrimidine-5-carboxamide] | 970 nM |  | 14 nM |  | 2660 nM
Cn1ccnc1CNC(=O)c1cnc(-c2ccco2)nc1N [Example 5.37, 4-Amino-2-(2-furyl)-N-[(1-methylimidazol-2-yl)methyl]pyrimidine-5-carboxamide] | 1600 nM |  | 16 nM |  | 
COc1cccc(CNC(=O)c2cnc(-c3ccco3)nc2N)c1OC [Example 5.38, 4-Amino-N-[(2,3-dimethoxyphenyl)methyl]-2-(2-furyl)pyrimidine-5-carboxamide] | 2360 nM |  | 20 nM |  | 
Nc1nc(-c2ccco2)ncc1C(=O)NCc1ccc2[nH]ccc2c1 [Example 5.41, 4-Amino-2-(2-furyl)-N-(1H-indol-5-ylmethyl) pyrimidine-5-carboxamide] | 1090 nM |  | 52 nM |  | 4740 nM
Nc1nc(-c2ccco2)ncc1C(=O)NCc1cc(F)cc(C(F)(F)F)c1 [Example 5.44, 4-Amino-N-[[3-fluoro-5-(trifluoromethyl)phenyl]methyl]-2-(2-furyl)pyrimidine-5-carboxamide] |  |  | 78 nM | 1090 nM | 364 nM
Cc1cccnc1C(C)NC(=O)c1cnc(-c2ccco2)nc1N (centres unmarked) [Example 5.57, 4-Amino-2-(2-furyl)-N-[1-(3-methyl-2-pyridyl)ethyl]pyrimidine-5-carboxamide] |  |  | 40 nM | 1230 nM | 4480 nM
Nc1nc(-c2ccco2)ncc1C(=O)NCc1ncccn1 [Example 5.58, 4-Amino-2-(2-furyl)-N-(pyrimidin-2-ylmethyl)pyrimidine-5-carboxamide] | 2120 nM |  | 105 nM |  | 
Nc1nc(-c2ccco2)ncc1C(=O)NCc1nccc(C(F)(F)F)n1 [Example 5.59, 4-Amino-2-(2-furyl)-N-[[4-(trifluoromethyl)pyrimidin-2-yl]methyl]pyrimidine-5-carboxamide] |  |  | 236 nM | 4610 nM | 
Nc1nc(-c2ccco2)ncc1C(=O)N[C@H](CO)c1ccccc1 [Example 5.61, 4-Amino-2-(2-furyl)-N-[(1S)-2-hydroxy-1-phenyl-ethyl]pyrimidine-5-carboxamide] |  |  | 54 nM | 1470 nM | 4080 nM
COc1cccc(CNC(=O)c2cnc(-c3cccc(F)c3)nc2N)c1OC [Example 10.10, 4-Amino-N-[(2,3-dimethoxyphenyl)methyl]-2-(3-fluorophenyl)pyrimidine-5-carboxamide] | 378 nM | 96 nM | 96 nM |  | 
Cc1cccnc1CNC(=O)c1cnc(-c2ccc(F)cc2)nc1N [Example 14, 4-Amino-2-(4-fluorophenyl)-N-[(3-methyl-2-pyridyl)methyl]pyrimidine-5-carboxamide] |  | 744 nM | 744 nM | 202 nM | 740 nM
Cc1cccnc1CNC(=O)c1cnc(-c2nccs2)nc1N [Example 16.1, 4-Amino-N-[(3-methyl-2-pyridyl)methyl]-2-thiazol-2-yl-pyrimidine-5-carboxamide] | 7170 nM |  | 40 nM |  | 
Cc1cccnc1CNC(=O)c1c(N)nc(-c2ccco2)nc1-n1cccn1 [Example 19, 4-Amino-2-(2-furyl)-N-[(3-methyl-2-pyridyl)methyl]-6-pyrazol-1-yl-pyrimidine-5-carboxamide] |  | 105 nM | 105 nM | 675 nM | 871 nM
Cc1cccnc1CNC(=O)c1c(N)nc(-c2ccco2)nc1OCCN1CCNCC1 [Example 23.2, 4-Amino-2-(2-furyl)-N-[(3-methyl-2-pyridyl)methyl]-6-(2-piperazin-1-ylethoxy)pyrimidine-5-carboxamide] |  |  | 287 nM | 6700 nM | 7550 nM
CC(C)n1ncnc1CNC(=O)c1c(N)nc(-c2cccc(C#N)c2)nc1OCCF [Example 24.4, 4-Amino-2-(3-cyanophenyl)-6-(2-fluoroethoxy)-N-[(2-isopropyl-1,2,4-triazol-3-yl)methyl]pyrimidine-5-carboxamide] |  |  | 1.08 nM | 611 nM | 22 nM
Cc1cccnc1CNC(=O)c1c(N)nc(-c2cccc(C#N)c2)nc1OCCF [Example 24.8, 4-Amino-2-(3-cyanophenyl)-6-(2-fluoroethoxy)-N-[(3-methyl-2-pyridyl)methyl]pyrimidine-5-carboxamide] |  |  | 0.1 nM | 28.5 nM | 3.8 nM
